Source: patent US20230329140A1, “MAC[…]” (Ralco Nutrition Inc., priority 2019, published 2023)

Legend:
[1] = system: soybean; assay: Greenhouse soybean pot trial with magnesium lactate; format: in vivo
Experimental: Materials and Methods: One soybean seed was planted in each of the 60 individually marked pots using six different treatments in a randomized complete block design. Plants were grown in the greenhouse under controlled and ideal conditions. All pots were handled and cared for the same exact way throughout their entire growing season. Several measurements were recorded during this trial starting with emergence hours, the number of plants emerged, and unifoliate, 1st trifoliate, 3rd trifoliate, 5th trifoliate, and 7th trifoliate leaf area readings. […] of the measurements that were recorded when this trial was harvested are the number of pods, weight of pods, total soybean seed weight per treatment, and average soybean seed weight per pot.
The magnesium lactate improved the efficiency with which the plant builds chlorophyll when it was applied foliar in sparingly small quantities to soybean plants early in their growth stage.

[2] = system: corn; assay: Greenhouse corn pot trial with magnesium lactate; format: in vivo
Experimental: The corn trial that was conducted using MgL had one corn seed planted in each of the 60 individually marked pots using six different treatments in a randomized complete block design. Plants were grown in the greenhouse under controlled and ideal conditions. All pots were handled and cared for the same exact way throughout their entire growing season. During this trial the emergence hours, the number of plants emerged, and plant height measurements were taken at specific plant stages and recorded. Several measurements were documented when the trial was harvested which were V10 plant height, V10 chlorophyll readings, stalk diameter, and biomass.

CC(O)C(=O)[O-].CC(O)C(=O)[O-].[Mg+2] (stereo not drawn) [MgL, magnesium lactate]
efficiency with which the plant builds chlorophyll ([1]; applied foliar in sparingly small quantities to soybean plants early in their growth stage): improved | soybean yield (average soybean seed weight per pot) ([1]; greenhouse pots, FIG. 8): positive impact | overall performance in comparison to conventional magnesium compounds, such magnesium sulfate (MgSO) ([1]; soybean trial): performed better overall | overall performance in comparison to conventional magnesium compounds, such magnesium sulfate (MgSO) ([2]; corn trial): performed better overall | corn biomass ([2]; greenhouse pots, FIG. 14): positive impact | growth and development of corn ([2]; greenhouse pots, FIGS. 10-14): positive impact
